# Patent EP2790511B1 (Merck Sharp & Dohme Corp., priority 2011, dated 2013)
# Target: T1, hROMK (hKir1.1) (Homo sapiens, UniProt P48048)
# T1 construct: expressed in transfected cells
# T1 sequence (P48048 1-391): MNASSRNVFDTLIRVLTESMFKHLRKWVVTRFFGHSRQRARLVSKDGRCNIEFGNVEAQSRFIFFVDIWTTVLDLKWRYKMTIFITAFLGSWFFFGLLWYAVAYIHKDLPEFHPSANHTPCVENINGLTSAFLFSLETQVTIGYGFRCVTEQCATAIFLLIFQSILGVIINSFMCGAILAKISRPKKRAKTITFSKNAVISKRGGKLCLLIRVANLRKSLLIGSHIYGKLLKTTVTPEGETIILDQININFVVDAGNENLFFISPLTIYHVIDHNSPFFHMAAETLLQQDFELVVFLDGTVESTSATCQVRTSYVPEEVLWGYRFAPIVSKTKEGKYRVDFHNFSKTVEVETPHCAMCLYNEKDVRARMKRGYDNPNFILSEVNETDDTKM
# Experiment: Thallium Flux Assay
# Format: cell-based
# Conditions: HEK293 cells stably expressing hROMK (hKir1.1), FLIPR-Tetra; read-out: Thallium Flux IC50
# Procedure, shortened: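 HEK293 cells stably expressing hROMK, loaded with FluxOR dye 90 min at ambient temperature, then compound 30 min with 0.3 mM ouabain in probenecid buffer pH 7.4.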
row,Compound,IC50
1,"O=C(Cc1ccc(-n2cnnn2)cn1)N1CCN2C[C@@H](c3ccc4nonc4c3)OC[C@@H]2C1 [Example 178, (3R,9aS)-3-(2,1,3-benzoxadiazol-5-yl)-8-{[5-(1H-tetrazol-1-vl)pvridin-2-yl]acetyl}octahydropyrazino[2,1-c][1,4]oxazine]",350 nM
2,"COc1cc([C@@H]2CN3CCN(C(=O)Cc4cnc(-n5cnnn5)nc4)C[C@H]3CO2)ccc1C#N [Example 144, 2-methoxy-4-[(3R,9aS)-8-{[2-(1H-tetrazol-1-yl)pyrimidin-5-yl]acetyl}octahydropyrazino[2,1-c][1,4]oxazin-3-yl]benzonitrile]",390 nM
3,Cc1c([C@@H]2CN3CCN(C(=O)Cc4cnc(-n5cnnn5)nc4)C[C@H]3CO2)ccc2c1COC2=O [Example 16],480 nM
4,"Cc1nc(CC(=O)N2CCN3C[C@@H](c4ccc(F)c(C#N)c4C)OC[C@@H]3C2)ccc1-n1cnnn1 [Example 128, 6-fluoro-2-methyl-3-[(3R,9aS)-8-{[6-methyl-5-(1H-tetrazol-1-vl)pvridin-2-yl]acetyl}octahydropyrazino[2,1-c][1,4]oxazin-3-yl]benzonitrile]",180 nM
5,"Cc1c([C@H]2CN3CCN(C(=O)Cc4ccc(-n5cnnn5)nc4)C[C@H]3CS2)ccc(F)c1C#N [Example 185, 6-fluoro-2-methyl-3-[(3S,9aS)-8-{[6-(1H-tetrazol-1-yl)pyridin-3-yl]acetyl}octahydropyrazino[2,1-c][1,4]thiazin-3-yl]benzonitrile]",180 nM
6,"Cc1nc(-n2cnnn2)ncc1CC(=O)N1CCN2C[C@@H](c3ccc(F)c(C#N)c3Cl)OC[C@H]2C1 [Example 138, 2-chloro-6-fluoro-3-[(3R,9aR)-8-{[4-methyl-2-(1H-tetrazol-1-vl)pvrimidin-5-yl]acetyl}octahydropyrazino[2,1-c][1,4]oxazin-3-yl]benzonitrile]",140 nM
7,"COc1cc([C@H]2CN3CCN(C(=O)Cc4ccc(-n5cnnn5)nc4)C[C@@H]3CO2)ccc1C#N [Example 39, 2-methoxy-4-[(3S,9aR)-8-{[6-(1H-tetrazol-1-yl)pyridin-3-yl]acetyl}octahydropyrazino[2,1-c][1,4]oxazin-3-yl]benzonitrile]",260 nM
8,"Cc1nc(-n2cnnn2)nc(C)c1CC(=O)N1CCN2C[C@@H](c3ccc(F)c(C#N)c3C)OC[C@H]2C1 [Example 152, 3-[(3R,9aR)-8-{[4,6-dimethyl-2-(1H-tetrazol-1-yl)pyrimidin-5-yl]acetyl}octahydropyrazino[2,1-c][1,4]oxazin-3-yl]-6-fluoro-2-methylbenzonitrile]",200 nM
9,"Cc1c([C@@H]2CN3CCN(C(=O)Nc4ccc(-n5cnnn5)cn4)C[C@@H]3CO2)ccc(F)c1C#N [Example 200, (3R,9aR)-3-(3-cyano-4-fluoro-2-methylphenyl)-N-[5-(1H-tetrazol-1-yl)pyridin-2-yl]hexahydropyrazino[2,1-c][1,4]oxazine-8(1H)-carboxamide]",250 nM
10,"Cc1c([C@@H]2CN3CCN(C(=O)Cc4ccnc(-n5cnnn5)c4)C[C@H]3CO2)ccc(F)c1C#N [Example 99, 6-fluoro-2-methyl-3-[(3R,9aS)-8-{[2-(1H-tetrazol-1-yl)pyridin-4-yl]acetyl}octahydropyrazino[2,1-c][1,4]oxazin-3-yl]benzonitrile]",340 nM
11,"N#Cc1cc([C@@H]2CN3CCN(C(=O)Cc4ccc(-n5cnnn5)cn4)C[C@H]3CO2)c(F)cc1F [Example 82, 2,4-difluoro-5-[(3R,9aS)-8-{[5-(1H-tetrazol-1-yl)pyridin-2-yl]acetyl}octahydropyrazino[2,1-c][1,4]oxazin-3-yl]benzonitrile]",340 nM
12,Cc1c([C@H]2CN3CCN(C(=O)Cc4ccc(-n5cnnn5)cn4)C[C@H]3CS2)ccc(F)c1C#N [Example 186],270 nM
13,"O=C1OCCc2cc([C@@H]3CN4CCN(C(=O)Cc5cnc(-n6cnnn6)cn5)C[C@H]4CO3)ccc21 [Example 80, 6-[(3R,9aS)-8-{[5-(1H-tetrazol-1-yl)pyrazin-2-yl]acetyl}octahydropyrazino[2,1-c][1,4]oxazin-3-yl]-3,4-dihydro-1H-isochromen-1-one]",500 nM
14,"N#Cc1cc([C@@H]2CN3CCN(C(=O)Cc4cnc(-n5cnnn5)nc4)C[C@@H]3CO2)ccc1F [Example 141, 2-fluoro-5-[(3R,9aR)-8-{[2-(1H-tetrazol-1-yl)pyrimidin-5-yl]acetyl}octahydropyrazino[2,1-c][1,4]oxazin-3-yl]benzonitrile]",300 nM
15,"COc1c([C@H]2CN3CCN(C(=O)Cc4cnc(-n5cnnn5)nc4)C[C@H]3CO2)ccc(F)c1C#N [Example 139, 6-fluoro-2-methoxy-3-[(3S,9aS)-8-{[2-(1H-tetrazol-1-vl)pvrimidin-5-yl]acetyl}octahydropyrazino[2,1-c][1,4]oxazin-3-yl]benzonitrile]",160 nM
16,"Cc1c([C@@H]2CN3CCN(C(=O)Cc4cccc(-n5cnnn5)n4)C[C@H]3CO2)ccc(F)c1C#N [Example 98, 6-fluoro-2-methyl-3-[(3R,9aS)-8-{[6-(1H-tetrazol-1-yl)pyridin-2-yl]acetyl}octahydropyrazino[2,1-c][1,4]oxazin-3-yl]benzonitrile]",560 nM
17,"Cc1nc(-n2cnnn2)ccc1CC(=O)N1CCN2C[C@@H](c3ccc4c(c3)CCOC4=O)OC[C@@H]2C1 [Example 30, 6-[(3R,9aS)-8-{[2-methyl-6-(1H-tetrazol-1-yl)pyridin-3-yl]acetyl}octahydropyrazino[2,1-c][1,4]oxazin-3-yl]-3,4-dihydro-1H-isochromen-1-one]",160 nM
18,"COc1cc([C@@H]2CN3CCN(C(=O)Cc4ccc(-n5cnnn5)nc4)C[C@@H]3CO2)ccc1C#N [Example 40, 2-methoxy-4-[(3R,9aR)-8-{[6-(1H-tetrazol-1-yl)pyridin-3-yl]acetyl}octahydropyrazino[2,1-c][1,4]oxazin-3-yl]benzonitrile]",70 nM

# Same assay, conditions: Thallium Flux IC50
row,Compound,IC50
1,"Cc1c(C2CN3CCN(C(=O)Cc4ccc(-n5cnnn5)nc4)CC3CCO2)ccc2c1COC2=O (single isomer, unassigned) [Example 164, 4-methyl-5-(2-{(6-(1H-tetrazol-1-yl)pyridin-3-yl]acetyl}octahydro-2H-pyrazino[1,2-d][1,4]oxazepin-7-yl)-2-benzofuran-1(3H)-one]",650 nM
2,"N#Cc1c(F)ccc([C@H]2CN3CCN(C(=O)Cc4ccc(-n5cnnn5)nc4)C[C@@H]3CO2)c1F [Example 87, 2,6-difluoro-3-[(3S,9aR)-8-{[6-(1H-tetrazol-1-yl)pyridin-3-yl]acetyl}octahydropyrazino[2,1-c][1,4]oxazin-3-yl]benzonitrile]",220 nM
3,"COc1ccc([C@@H]2CN3CCN(C(=O)Cc4cnc(-n5cnnn5)nc4)C[C@H]3CO2)c(C)c1C#N [Example 135, 6-methoxy-2-methyl-3-[(3R,9aS)-8-{[2-(1H-tetrazol-1-vl)pvrimidin-5-yl]acetyl}octahydropyrazino[2,1-c][1,4]oxazin-3-yl]benzonitrile]",330 nM
4,"Cc1c([C@@H]2CN3CCN(C(=O)Cc4ccc(-n5cnnn5)nc4)C[C@H]3CO2)ccc2c1COC2=O [Example 22, 4-methyl-5-[(3R,9a,S)-8-{[6-(1H-tetrazol-1-yl)pyridin-3-yl]acetyl}octahydropyrazino[2,1-c][1,4]oxazin-3-y]-2-benzofuran-1(3H)-one]",160 nM
5,"Cc1c(C2CN3CCN(C(=O)Cc4ccc(-n5cnnn5)nc4)CC3CCO2)ccc2c1COC2=O (single isomer, unassigned) [Example 163, 4-methyl-5-(2-{[6-(1H-tetrazol-1-yl)pyridin-3-yl]acetyl}octahydro-2H-pyrazino[1,2-d][1,4]oxazepin-7-yl)-2-benzofuran-1(3H)-one]",210 nM
6,"Cc1cc(-n2cnnn2)ncc1CC(=O)N1CCN2C[C@H](c3ccc4c(c3C)COC4=O)OC[C@@H]2C1 [Example 42, 4-methyl-5-[(3S,9aS)-8-{[4-methyl-6-(1H-tetrazol-1-yl)pyridin-3-yl]acety}octahydropyrazino[2,1-c][1,4]oxazin-3-yl]-2-benzofuran-1(3H)-one]",210 nM
7,"Cc1c([C@H]2CN3CCN(C(=O)Cc4cnc(-n5cnnn5)cn4)C[C@H]3CO2)ccc(F)c1C#N [Example 76, 6-fluoro-2-methyl-3-[(3S,9aS)-8-{[5-(1H-tetrazol-1-yl)pyrazin-2-yl]acetyl}octahydropyrazino[2,1-c][1,4]oxazin-3-yl]benzonitrile]",150 nM
8,"N#Cc1c(F)ccc([C@H]2CN3CCN(C(=O)Cc4ccc(-n5cnnn5)cn4)C[C@H]3CO2)c1Cl [Example 52, 2-chloro-6-fluoro-3-[(3S,9aS)-8-{[5-(1H-tetrazol-1-yl)pyridin-2-yl]acetyl}octahydropyrazino[2,1-c][1,4]oxazin-3-yl]benzonitrile]",110 nM
9,"Cc1nc(-n2cnnn2)ncc1CC(=O)N1CCN2C[C@@H](c3ccc(F)c(C#N)c3C)OC[C@@H]2C1 [Example 118, 6-fluoro-2-methyl-3-[(3R,9aS)-8-{[4-methyl-2-(1H-tetrazol-1-vl)pvrimidin-5-yl]acetyl}octahydropyrazino[2,1-c][1,4]oxazin-3-yl]benzonitrile]",120 nM

# Same assay, conditions: read-out: Thallium Flux IC50
row,Compound,IC50
1,O=C1OCCc2cc([C@@H]3CN4CCN(C(=O)Cc5ccc(-n6cnnn6)nc5)C[C@H]4CO3)ccc21 [Example 1],80 nM
